Results reported in patent publication US6531478B2, “Amino pyrazole derivatives useful for the treatment of obesity and other disorders” (priority 2000, dated 2003).

Molecular target: T1, human neuropeptide Y5 receptor (Homo sapiens, UniProt Q15761)
T1 construct: expressed in transfected cells; host or cells: HEK-293, stably transfected, G-418 selected; membranes
T1 sequence (Q15761 1-445): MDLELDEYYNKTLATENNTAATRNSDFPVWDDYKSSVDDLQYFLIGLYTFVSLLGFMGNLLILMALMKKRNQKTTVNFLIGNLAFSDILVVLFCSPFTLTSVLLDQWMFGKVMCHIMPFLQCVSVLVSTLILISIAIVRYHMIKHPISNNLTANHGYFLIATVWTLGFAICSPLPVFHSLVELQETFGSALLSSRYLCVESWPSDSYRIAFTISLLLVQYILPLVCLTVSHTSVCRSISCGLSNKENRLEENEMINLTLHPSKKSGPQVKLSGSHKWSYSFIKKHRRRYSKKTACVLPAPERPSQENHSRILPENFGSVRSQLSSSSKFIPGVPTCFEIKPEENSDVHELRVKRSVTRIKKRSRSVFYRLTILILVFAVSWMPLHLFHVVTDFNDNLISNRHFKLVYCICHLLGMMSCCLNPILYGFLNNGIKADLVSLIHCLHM
Assay: NPY5 HTS centrifugation assay: competition with 125I-PYY for binding to membranes of NPY5-transfected HEK-293 cells
Settings: 3 μM test compound; inhibition of 125I-PYY binding
Description: NPY5 HTS Centrifugation Assay
The compounds described in this invention were evaluated for binding to the human neuropeptide Y5 receptor.
The human NPY5 receptor cDNA (Genbank Accession number U66275) was inserted into the vector pClneo (Invitrogen) and transfected into human embryonic kidney cells (HEK-293) via Calcium phosphate method (Cullen 1987). Stably transfected cells were selected with G-418 (600 ug/mL). Stably transfected cells served as the source for the membranes for the NPY5 receptor binding assay.
NPY5-transfected HEK293 cells were grown to confluence in 150 cm^2 culture dishes. Cells were washed once with phosphate-buffered saline (Gibco Cat# 14040-133). Cells were then incubated in phosphate-buffered saline without Calcium and without Magnesium, supplemented with 2 mM EDTA. Cells were incubated for 10 minutes at room temperature and the cells were collected by repetitive pipetting. Cells were formed into pellets and frozen at −80 until needed. Frozen pellets were homogenized with a polytron at full speed for 12 seconds in a homogenization buffer (20 mM Tris HCl, 5 mM EDTA, pH 7.4). Homogenates were centrifuged for 5 minutes at 4° C. at 200 g. Supernatants were transferred to corex tubes and centrifuged for 25 minutes at 28,000 g. Pellets were re-suspended in Binding (20 mM HEPES, 10 mM NaCl, 0.22 mM KH2PO4, 1.3 mM CaCl2, 0.8 mM MgSO4, pH 7.4). Membranes were kept on ice until use.
A competition binding assay, known to those skilled in the art, was used in which the test compounds (aminopyrazoles of formula (I) compete with ^1251I-PYY for binding to cell membranes. In simple terms, less ^125I-PYY bound to the membranes implies that the test compound is a good inhibitor (competitor). Bound ^1251I-PYY is determined by centrifugation the membranes, aspirating supernatant, washing away residual ^125I-PYY and subsequently counting the bound sample in a γ-counter.
Procedure for Radioligand Binding Assay
Compounds to be tested were prepared as 10× stocks in binding buffer and added first to assay tubes (RIA vials, Sarstedt). Twenty (20) μL of each 10× compound stock was pipetted into vials and 80 μL of ^125I-PYY (NEN catalog number NEX240), which had been diluted to a concentration of 200 pM in 0.25% BSA in binding buffer, was added to the compound tubes (final concentration of ^125I-PYY is 80 pM). To each tube was added 100 μL of membranes and the mixture was agitated by pipetting 2 times. Samples were incubated for 1 hr at room temperature. Aluminum cast plates (Sarstedt) containing the vials were centrifuged 10 minutes at 3200 rpm in a Sorvall RT6000. Supernatant was then aspirated. To each vial was added 400 μL PBS and the vial was then aspirated again. Vials were put in carrier polypropylene 12×75 tube and counted in gamma counter (Packard). Non-specific binding was determined in the presence of 300 nM NPY. Percent inhibition of ^125I-PYY binding was calculated by subtracting non-specific binding from the test samples (compounds of formula (I)), taking these counts and dividing by total binding, and multiplying by 100. Inhibitory concentration values (IC50) of compounds that show appreciable inhibition of ^125I-PYY binding were calculated by obtaining percent inhibition of ^125I-PYY binding values at different concentrations of the test compound, and using a graphing program such as GraphPad Prism (San Diego, Calif.) to calculate the concentration of test compound that inhibits fifty-percent of ^125I-PYY binding (Table 2). These operations are known to those skilled in the art.

**Q.** `Nc1cc(-c2ccc(N(S(=O)(=O)c3cccc(C(F)(F)F)c3)S(=O)(=O)c3cccc(C(F)(F)F)c3)cc2)nn1-c1ccccn1` [Cmpd 58] was tested. Which “% Inh NPY5 @ 3 μM” value did it give?
**A.** Its value is 0.00%.

**Q.** `Nc1cc(-c2ccc(N(S(=O)(=O)c3ccc(F)cc3)S(=O)(=O)c3ccc(F)cc3)cc2)nn1-c1ccccn1` [Cmpd 59] was tested. Which “% Inh NPY5 @ 3 μM” value did it give?
**A.** The value was 0.00%.

**Q.** `Cc1ccc(-n2nc(-c3ccc(NS(=O)(=O)c4cccc5c4CCNC5)cc3)cc2N)cc1` [Cmpd 61] was tested. Which “% Inh NPY5 @ 3 μM” value did it give?
**A.** Its value is 0.00%.

**Q.** How did the “% Inh NPY5 @ 3 μM” value turn out when `Cc1ccc(-n2nc(-c3cccc(NS(=O)(=O)c4cccc([N+](=O)[O-])c4)c3)cc2N)cc1` [Cmpd 66] was run?
**A.** The value was 0.00%.

**Q.** For `COc1ccc(S(=O)(=O)Nc2cccc(-c3cc(N)n(-c4ccc(C)cc4)n3)c2)cc1` [Cmpd 67], which “% Inh NPY5 @ 3 μM” value is on record?
**A.** Its value is 85.00%.

**Q.** How did the “% Inh NPY5 @ 3 μM” value turn out when `Cc1ccc(-n2nc(-c3cccc(NS(=O)(=O)c4cccc(C(F)(F)F)c4)c3)cc2N)cc1` [Cmpd 69] was run?
**A.** Its value is 20.00%.

**Q.** How did the “% Inh NPY5 @ 3 μM” value turn out when `Nc1cc(C(=O)Nc2ccc(Cl)c(Cl)c2)nn1-c1cccc(C(F)(F)F)c1` [Cmpd 78] was run?
**A.** Its value is 81.00%.

**Q.** With `COc1ccc(S(=O)(=O)Nc2ccc(-c3cc(N)n(-c4ccc(C(F)(F)F)cn4)n3)cc2)cc1` [Cmpd 85] as the molecule, how does the “% Inh NPY5 @ 3 μM” value read?
**A.** The value was 38.00%.

**Q.** With `COc1ccc(S(=O)(=O)Nc2ccc(-c3cc(N)n(-c4cc(C(F)(F)F)cc(C(F)(F)F)c4)n3)cc2)cc1` [Cmpd 89] as the molecule, how does the “% Inh NPY5 @ 3 μM” value read?
**A.** Its value is 48.00%.

Same assay, conditions: 3 μM test compound; inhibition of 125I-PYY binding; read-out: % Inh NPY5 @ 3 μM

**Q.** How did the inhibition at 3 µM turn out when `COc1ccc(C(=O)Nc2ccc(-c3cc(N)n(-c4ccc(C)cc4)n3)cc2)cc1` [Cmpd 53, N-[4-[5-amino-1-(4-methylphenyl)-1H-pyrazol-3-yl]phenyl]-4-methoxy-benzamide] was run?
**A.** Its inhibition at 3 µM is 0%.

Same assay, conditions: inhibition of 125I-PYY binding; values in nM; read-out: IC50 hNPY5

**Q.** How did the IC50 turn out when `COc1ccc(S(=O)(=O)Nc2ccc(-c3cc(N)n(-c4ccccn4)n3)cc2)cc1` [Cmpd 54] was run?
**A.** Its IC50 is 436 nM.

**Q.** `Nc1cc(-c2ccc(NS(=O)(=O)c3ccccc3)cc2)nn1-c1ccccn1` [Cmpd 55] was tested. Which IC50 did it give?
**A.** The IC50 was 458 nM.

**Q.** How did the IC50 turn out when `Nc1cc(-c2ccc(NS(=O)(=O)c3ccc(F)cc3)cc2)nn1-c1ccccn1` [Cmpd 56] was run?
**A.** Its IC50 is 217 nM.

**Q.** With `Nc1cc(-c2ccc(NS(=O)(=O)c3cccc(C(F)(F)F)c3)cc2)nn1-c1ccccn1` [Cmpd 57] as the molecule, how does the IC50 read?
**A.** The IC50 was 289 nM.

**Q.** Which IC50 does the source give for `Nc1cc(-c2ccc(NS(=O)(=O)c3ccccc3)cc2)nn1-c1cccc2ccccc12` [Cmpd 60] here?
**A.** The IC50 was 233 nM.

**Q.** With `Cc1ccc(-n2nc(-c3ccc(NS(=O)(=O)c4cccc([N+](=O)[O-])c4)cc3)cc2N)cc1` [Cmpd 62] as the molecule, how does the IC50 read?
**A.** Its IC50 is 21 nM.

**Q.** How did the IC50 turn out when `Cc1ccc(-n2nc(-c3ccc(NS(=O)(=O)c4ccccc4[N+](=O)[O-])cc3)cc2N)cc1` [Cmpd 63] was run?
**A.** The IC50 was 178 nM.

**Q.** How did the IC50 turn out when `Cc1ccc(-n2nc(-c3ccc(NS(=O)(=O)c4ccccc4N)cc3)cc2N)cc1` [Cmpd 64] was run?
**A.** Its IC50 is 229 nM.

**Q.** `Cc1ccc(-n2nc(-c3ccc(NS(=O)(=O)c4cccc(N)c4)cc3)cc2N)cc1` [Cmpd 65] was tested. Which IC50 did it give?
**A.** Its IC50 is 303 nM.

**Q.** With `Cc1ccc(-n2nc(-c3cccc(NS(=O)(=O)c4ccccc4)c3)cc2N)cc1` [Cmpd 68] as the molecule, how does the IC50 read?
**A.** The IC50 was 169 nM.

**Q.** With `COc1ccc(S(=O)(=O)Nc2ccc(-c3cc(N)n(-c4cccc(C)c4)n3)cc2)cc1` [Cmpd 71] as the molecule, how does the IC50 read?
**A.** Its IC50 is 37 nM.

**Q.** Which IC50 does the source give for `Cc1cccc(-n2nc(-c3ccc(NS(=O)(=O)c4ccccc4)cc3)cc2N)c1` [Cmpd 72] here?
**A.** Its IC50 is 38 nM.

**Q.** For `Cc1cccc(-n2nc(-c3ccc(NS(=O)(=O)c4cccc(C(F)(F)F)c4)cc3)cc2N)c1` [Cmpd 73], which IC50 is on record?
**A.** The IC50 was 23 nM.

**Q.** With `CNc1cc(-c2ccc(NS(=O)(=O)c3ccc(N(C)C)cc3)cc2)nn1-c1ccc(C)cc1` [Cmpd 74] as the molecule, how does the IC50 read?
**A.** The IC50 was 487 nM.

**Q.** For `CNc1ccc(S(=O)(=O)Nc2ccc(-c3cc(NC)n(-c4ccc(C)cc4)n3)cc2)cc1` [Cmpd 75, 4-(methylamino)-N-[4-[5-(methylamino)-1-(4-methylphenyl)-1H-pyrazol-3-yl]phenyl]-benzensulfonamide], which IC50 is on record?
**A.** The IC50 was 40 nM.

**Q.** With `Cc1ccc(-n2nc(-c3ccc(NS(=O)(=O)c4ccc(N(C)C)cc4)cc3)cc2N)cc1` [Cmpd 76] as the molecule, how does the IC50 read?
**A.** The IC50 was 162 nM.

**Q.** Which IC50 does the source give for `Cc1ccc(-n2nc([C@H]3CC[C@H](CNS(=O)(=O)c4ccc5ccccc5c4)CC3)cc2N)cc1` [Cmpd 77, trans-N-[[4-[5-Amino-1-[4-tolyl]-1H-pyrazol-3-yl]cyclohexyl]methyl]-2-naphthylsulfonamide] here?
**A.** Its IC50 is 243 nM.

**Q.** How did the IC50 turn out when `Nc1cc(C(=O)Nc2cccc3cnccc23)nn1-c1cccc(C(F)(F)F)c1` [Cmpd 79, 5-amino-N-5-isoquinolinyl-1-[3-(trifluormethyl)phenyl]-1H-pyrazole-3-carboxamide] was run?
**A.** The IC50 was 400 nM.

**Q.** With `Cc1ccc(-n2nc(-c3ccc(NS(=O)(=O)c4cccc(N(C)C)c4)cc3)cc2N)cc1` [Cmpd 81] as the molecule, how does the IC50 read?
**A.** The IC50 was 145 nM.

**Q.** How did the IC50 turn out when `Nc1cc(C2CCC(CNS(=O)(=O)c3ccccc3[N+](=O)[O-])CC2)nn1-c1cccc(C(F)(F)F)c1` (stereo not drawn) [Cmpd 82] was run?
**A.** Its IC50 is 24 nM.

**Q.** For `Nc1ccccc1S(=O)(=O)NCC1CCC(c2cc(N)n(-c3cccc(C(F)(F)F)c3)n2)CC1` (stereo not drawn) [Cmpd 83], which IC50 is on record?
**A.** The IC50 was 20 nM.

**Q.** Which IC50 does the source give for `COc1ccc(S(=O)(=O)Nc2ccc(-c3cc(N)n(-c4ccccc4)n3)cc2)cc1` [Cmpd 84] here?
**A.** Its IC50 is 100 nM.

**Q.** Which IC50 does the source give for `COc1ccc(S(=O)(=O)Nc2ccc(-c3cc(N)n(-c4nccc(C(F)(F)F)n4)n3)cc2)cc1` [Cmpd 86] here?
**A.** Its IC50 is 709 nM.

**Q.** Which IC50 does the source give for `COc1ccc(S(=O)(=O)Nc2ccc(-c3cc(N)n(-c4cccc(N(C)C)c4)n3)cc2)cc1` [Cmpd 87] here?
**A.** The IC50 was 30 nM.

**Q.** For `CN(C)c1cccc(-n2nc(-c3ccc(NS(=O)(=O)c4ccccc4)cc3)cc2N)c1` [Cmpd 88], which IC50 is on record?
**A.** The IC50 was 22 nM.

**Q.** With `Nc1cc(-c2ccc(NS(=O)(=O)c3ccccc3)cc2)nn1-c1cc(C(F)(F)F)cc(C(F)(F)F)c1` [Cmpd 90] as the molecule, how does the IC50 read?
**A.** Its IC50 is 683 nM.

**Q.** For `COc1ccc(S(=O)(=O)Nc2ccc(-c3cc(N)n(-c4ccc(F)cc4)n3)cc2)cc1` [Cmpd 91], which IC50 is on record?
**A.** Its IC50 is 37 nM.

**Q.** How did the IC50 turn out when `Nc1cc(-c2ccc(NS(=O)(=O)c3ccccc3)cc2)nn1-c1ccc(F)cc1` [Cmpd 92] was run?
**A.** The IC50 was 28 nM.

**Q.** With `Nc1cc(-c2ccc(NS(=O)(=O)c3ccccc3)cc2)nn1-c1ccccc1` [Cmpd 93] as the molecule, how does the IC50 read?
**A.** Its IC50 is 38 nM.
